Measurements as given in patent US10328003B2, “Solubilizing agents for active or functional organic compounds” (ISP INVESTMENTS LLC, priority 2015, dated 2019).

Columns and labels:
[1] = Description: (§1) Different samples of the current solubilizing compound cycloalkyl toluate was combined with available sunscreens Escalol S, avobenzone and oxybenzone at 25° C. […] Solubility was checked for cyclohexyl ester in various sunscreen actives such as bemotrizinol, ethylhexyl triazone, avobenzone & benzophenone-3 in comparison to phenethyl benzoate.
[2] = Comparison of solubilizers combined with sunscreens: clear solution or crystal formation; assay type: physicochemical; details: 25° C., FIG. 6
Description: as §1

Compound: Cc1ccccc1C(=O)OC1CCCCC1 [Cyclohexyl 2-Toluate]
- Solubility of Escalol S at 25° C. [1]: 37%

Compound: Cc1cccc(C(=O)OC2CCCCC2)c1 [Cyclohexyl 3-Toluate]
- Solubility of Escalol S at 25° C. [1]: 35%

Compound: Cc1ccc(C(=O)OC2CCCCC2)cc1 [Cyclohexyl 4-Toluate]
- Solubility of Escalol S at 25° C. [1]: 36%

Compound: Cc1cccc(C(=O)OCC2CCCCC2)c1 [Cyclohexylmethanol 3-Toluate]
- Solubility of Escalol S at 25° C. [1]: 30%

Compound: Cc1cccc(C(=O)OC2CCCC2)c1 [Cyclopentyl 3-Toluate]
- Solubility of Escalol S at 25° C. [1]: 34%

Compound: O=C(OCCc1ccccc1)c1ccccc1 [Phenethyl benzoate, 2-phenylethyl benzoate, reference compound]
- Solubility @ 25° C. Avobenzone [1]: 20
- Solubility @ 25° C. Escalol S [1]: 22
- Solubility @ 25° C. Oxybenzone [1]: 34
- Solution appearance when combined with Escalol S, avobenzone and oxybenzone [2]: crystal formations

Compound: Cyclohexyl Toluate
- Solubility @ 25° C. Avobenzone [1]: 25
- Solubility @ 25° C. Escalol S [1]: 36
- Solubility @ 25° C. Oxybenzone [1]: 32
- Solubility of Avobenzone at 25° C. [1]: 25%
- Solubility of Escalol S at 25° C. [1]: 36%
- Solubility percentages of sunscreen active in the solubilizer [1]: 22-33%
